Legend:
[1] = Metabolic stability evaluation, mouse liver microsome experiment; assay type: in vitro ADME; conditions: liver microsomes, pH 7.4, 1 μM compound, 0.5 mg/mL protein, 37° C.; for half-life at 1 μM: read-out: Mouse liver microsome experiment t1/2
Experimental: (§1) Microsomal experiment: human liver microsomes: 0.5 mg/mL, Xenotech; rat liver microsomes: 0.5 mg/mL, Xenotech; mouse liver microsomes: 0.5 mg/mL, Xenotech; coenzyme (NADPH/NADH): 1 mM, Sigma Life Science; magnesium chloride: 5 mM, 100 mM phosphate buffer (pH 7.4).
(§2) Preparation of a stock solution: A certain amount of the powder of the example compounds was accurately weighed and dissolved in DMSO to a 5 mM concentration.
(§3) Preparation of phosphate buffer (100 mM, pH 7.4): 150 mL of a pre-prepared 0.5 M potassium dihydrogen phosphate and 700 mL of a pre-prepared 0.5 M dipotassium hydrogen phosphate were mixed. The mixture was then adjusted to pH 7.4 with a 0.5 M dipotassium hydrogen phosphate solution. The mixture was diluted 5-fold with ultrapure water before use, and magnesium chloride was added to obtain a phosphate buffer (100 mM) containing 100 mM potassium phosphate, 3.3 mM magnesium chloride, and a pH of 7.4.
(§4) A solution of NADPH regeneration system (containing 6.5 mM NADP, 16.5 mM G-6-P, 3 U/mL G-6-P D, 3.3 mM magnesium chloride) was prepared and placed on wet ice before use.
(§5) Preparation of a stop solution: an acetonitrile solution containing 50 ng/mL propranolol hydrochloride and 200 ng/mL tolbutamide (internal standard). 25057.5 μL of phosphate buffer (pH 7.4) was added into a 50 mL centrifuge tube, 812.5 μL of human liver microsomes, rat liver microsomes and mouse liver microsomes were then added into the 50 mL centrifuge tube, respectively, and the mixtures were mixed evenly to obtain liver microsome dilutions with a protein concentration of 0.625 mg/mL. Incubation of samples: The stock solutions of the corresponding compounds were diluted to 0.25 mM with an aqueous solution containing 70% acetonitrile, respectively, and used as working solutions ready for use. 398 μL of dilutions of human liver microsomes or rat liver microsomes or mouse liver microsome were added to 96-well incubation plates (N=2), and then 2 μL of 0.25 mM working solutions were added and mixed, respectively.
(§6) Determination of metabolic stability: 300 μL of a pre-cooled stop solution was added to each well of a 96-well deep well plate and placed on ice as a stop plate. The 96-well incubation plate and the NADPH regeneration system were placed in a 37° C. water bath, shaken at 100 rpm, and pre-incubated for 5 min. 80 μL of an incubation solution was taken from each well of the incubation plate and added to the stop plate, mixed evenly, and replenished with 20 μL of NADPH regeneration system solution as a 0 min sample. 80 μL of NADPH regeneration system solution was then added to each well of the incubation plate to start the reaction, and timing was started. […] 100 μL of the reaction solution was taken at 10, 30, and 90 min after reaction, respectively, added to the stop plate, and vortexed for 3 minutes to terminate the reaction. The stop plate was centrifuged for 10 min at 5000×g at 4° C. 100 μL of the supernatant was added to a 96-well plate to which 100 μL of distilled water was previously added, mixed evenly, and analyzed by LC-MS/MS.
(§7) Data analysis: The peak areas of the corresponding compounds and internal standard were detected by LC-MS/MS system, and the ratio of the peak areas of the compounds to the internal standard was calculated.

BaF3-EpoR-JAK2 cells = assay: Cytotoxicity assay, BaF3-EpoR-JAK2 cells (CellTiter-Glo); assay type: cell-based; conditions: 72 h; 3 days incubation, 1 ng/ml IL-3, CellTiter-Glo
Experimental: The inhibitory effects of example compounds on the activity of BaF3-EpoR-JAK2 and BaF3-EpoR-JAK2/V617F cells were determined.
Materials and reagents: RPMI-1640 medium (GIBCO, Cat. No. A10491-01), fetal bovine serum (GIBCO, Cat. No. 10099-141), antibiotics (GIBCO, Cat. No. 10010-031), IL-3 (CST, Cat. No. 8923SF), phosphate buffer solution PBS (GIBCO, Cat. No. 10010-0312), penicillin-streptomycin (GIBCO, Cat. No. 15140-122);
Cell lines: BaF3-EpoR-JAK2 cells (Pharmaron), BaF3-EpoR-JAK2/V617F cells (Pharmaron), live cell assay kit CellTiter-Glo4 (Promega, Cat. No. G7572), 96-well black-wall clear flat-bottom cell culture plate (Corning, Cat. No. 3340).
(§8) Assay method: 1. Preparation of cell plates. BaF3-EpoR-JAK2 cells and BaF3-EpoR-JAK2/V617F cells were seeded in 96-well plates, respectively, and 1 ng/ml IL-3 was added to Ba/F3 cells. The cell plates were placed in a carbon dioxide incubator for overnight culture. 2. The test compounds were dissolved in DMSO and subjected to 3-fold gradient dilution, 9 compound concentrations were obtained in duplicate. 3. Treatments of Cells with Compounds. The compounds were transferred to cell plates, and the starting concentration of the compounds is 10 μM. The cell plates were incubated in a carbon dioxide incubator for 3 days. 4. Detection. A CellTiter-Glo reagent was added to the cell plates and incubated for 30 minutes at room temperature to stabilize the luminescence signal. Reading was obtained using a PerkinElmer Envision multi-label analyzer.

[2] = test system: BaF3-EpoR-JAK2/V617F cells; assay: Cytotoxicity assay, BaF3-EpoR-JAK2/V617F cells (CellTiter-Glo); assay type: cell-based; conditions: 72 h; 3 days incubation, 1 ng/ml IL-3, CellTiter-Glo
Experimental: as §8, with “BaF3-EpoR-JAK2 cells and BaF3-EpoR-JAK2/V617F cells were seeded in 96-well plates, respectively, and 1 ng/ml IL-3 was added to Ba/F3 cells.” left out

[3] = Metabolic stability evaluation, rat liver microsome experiment; assay type: in vitro ADME; conditions: liver microsomes, pH 7.4, 1 μM compound, 0.5 mg/mL protein, 37° C.; for half-life at 1 μM: read-out: Rat liver microsome experiment t1/2
Experimental: as §1, §2, §3, §4, §5, §6, §7

[4] = Metabolic stability evaluation, human liver microsome experiment; assay type: in vitro ADME; conditions: liver microsomes, pH 7.4, 1 μM compound, 0.5 mg/mL protein, 37° C.; for half-life at 1 μM: read-out: Human liver microsome experiment t1/2
Experimental: as §1, §2, §3, §4, §5, §6, §7

[5] = Rat pharmacokinetic experiment; assay type: in vivo; conditions: male Sprague-Dawley rats, single dose 3 mg/kg intravenously, 10 mg/kg orally
Experimental: 6 male Sprague-Dawley rats (7-8 weeks old, and weighted approximately 210 g) were divided into 2 groups with 3 rats in each group. The rats were intravenously or orally administered a single dose of compound (3 mg/kg intravenously, 10 mg/kg orally) to compare pharmacokinetic differences.
The rats were raised on standard food and water. Fasting was started 16 hours before the test. The drug was dissolved with PEG400 and dimethyl sulfoxide. The blood samples were collected from eyelids at the time points of 0.083 hours, 0.25 hours, 0.5 hours, 1 hour, 2 hours, 4 hours, 6 hours, 8 hours, 12 hours, and 24 hours after administration.
Rats were briefly anesthetized after inhalation of diethyl ether and 300 μL of blood sample was collected from the eyelids into test tubes. There was 30 μL of 1% heparin salt solution in the test tube. Tubes were dried at 60° C. overnight before use. After the blood sample was collected at the last time point, the rats were sacrificed after ether anesthesia.
Immediately after the collection of the blood sample, the test tube was gently inverted at least 5 times to ensure sufficient mixing and then placed on ice. […] The concentration of the compound disclosed herein in plasma was determined by LC-MS/MS. The pharmacokinetic parameters were calculated based on the drug concentration in blood of each animal at different time points.

| SMILES | microsomal CLint at 1 μM [1] [µL/min/mg] | half-life at 1 μM [1] [min] | microsomal CLint at 1 μM [3] [µL/min/mg] | half-life at 1 μM [3] [min] | microsomal CLint at 1 μM [4] [µL/min/mg] | half-life at 1 μM [4] [min] | Oral availability [5] [%] | IC50 (BaF3-EpoR-JAK2 cells) [µM] | IC50 [2] [µM] |
| --- | --- | --- | --- | --- | --- | --- | --- | --- | --- |
| [2H]C([2H])(Oc1ccc(Nc2ncc(C)c(Nc3cccc(S(=O)(=O)NC(C)(C)C)c3)n2)cc1)C([2H])([2H])N1CCCC1 [Compound T-1, N-(tert-butyl)-3-((5-methyl-2-((4-(2-(pyrrolidin-1-yl)ethoxy-1,1,2,2-d4)phenyl)amino)pyrimidin-4-yl)amino)benzenesulfonamide] | 157 | 8.8 | 73.9 | 18.7 | 6.8 | 203 |  | 0.536 | 0.206 |
| [2H]c1nc(Nc2ccc(OCCN3CCCC3)cc2)nc(Nc2cccc(S(=O)(=O)NC(C)(C)C)c2)c1C([2H])([2H])[2H] [Compound T-2, N-(tert-butyl)-3-((5-(methyl-d3)-2-((4-(2-(pyrrolidin-1-yl)ethoxy)phenyl)amino)pyrimidin-4-yl-6-d)amino)benzenesulfonamide] | 174 | 8 |  |  |  |  |  | 0.725 | 0.196 |
| Cc1cnc(Nc2ccc(OCCN3CCCC3)cc2)nc1Nc1cccc(S(=O)(=O)NC(C)(C)C)c1 [Fedratinib, N-(tert-butyl)-3-((5-methyl-2-((4-(2-(pyrrolidin-1-yl)ethoxy)phenyl)amino)pyrimidin-4-yl)amino)benzenesulfonamide, reference compound] | 238 | 5.8 | 81.3 | 17 | 12.5 | 111 | 7.24 | 0.653 | 0.211 |

Second part, led by results:

| microsomal CLint at 1 μM [1] [µL/min/mg] | half-life at 1 μM [1] [min] | microsomal CLint at 1 μM [3] [µL/min/mg] | half-life at 1 μM [3] [min] | microsomal CLint at 1 μM [4] [µL/min/mg] | half-life at 1 μM [4] [min] | Oral availability [5] [%] | SMILES | IC50 (BaF3-EpoR-JAK2 cells) [µM] | IC50 [2] [µM] |
| --- | --- | --- | --- | --- | --- | --- | --- | --- | --- |
| 206 | 6.7 | 80.4 | 17.2 |  |  |  | [2H]C([2H])([2H])C(C)(NS(=O)(=O)c1cccc(Nc2nc(Nc3ccc(OCCN4CCCC4)cc3)ncc2C)c1)C([2H])([2H])[2H] [Compound T-3, 3-((5-methyl-2-((4-(2-(pyrrolidin-1-yl)ethoxy)phenyl)amino)pyrimidin-4-yl)amino)-N-(2-methylpropan-2-yl-1,1,1,3,3,3-d6)benzenesulfonamide] | 0.604 | 0.244 |
| 194 | 7.1 | 76.6 | 18.1 |  |  |  | [2H]C([2H])([2H])C(NS(=O)(=O)c1cccc(Nc2nc(Nc3ccc(OCCN4CCCC4)cc3)ncc2C)c1)(C([2H])([2H])[2H])C([2H])([2H])[2H] [Compound T-4, 3-((5-methyl-2-((4-(2-(pyrrolidin-1-yl)ethoxy)phenyl)amino)pyrimidin-4-yl)amino)-N-(2-(methyl-d3)propan-2-yl-1,1,1,3,3,3-d6)benzenesulfonamide] | 0.587 | 0.238 |
| 158 | 8.8 | 77 | 18 | 11.5 | 121 | 7.48 | [2H]C1([2H])N(CCOc2ccc(Nc3ncc(C)c(Nc4cccc(S(=O)(=O)NC(C)(C)C)c4)n3)cc2)C([2H])([2H])C([2H])([2H])C1([2H])[2H] [Compound T-5, N-(tert-butyl)-3-((5-methyl-2-((4-(2-(pyrrolidin-1-yl-d8)ethoxy)phenyl)amino)pyrimidin-4-yl)amino)benzenesulfonamide] | 0.69 | 0.269 |

From patent US11384069B2, “Diphenylaminopyrimidine compound for inhibiting kinase activity” (Shenzhen TargetRx, Inc., priority 2018, dated 2022)
